Measured values published in article PMC7613620, “Reaction hijacking of tyrosine tRNA synthetase as a whole-of-life-cycle antimalarial strategy” (Science (New York, N.Y.), 2022).
Where two headings read alike, the source gives them in different places.

System: PfYRS knockdown line
Test: Growth inhibition of aptamer-regulatable PfYRS knockdown line (luciferase, 72 h)
Type: cell-based, Plasmodium falciparum
Conditions: for IC50: Plasmodium falciparum
Excerpt: 674 Generation and analysis of PfYRS knock-down transfectants
675 A conditional regulatable line for the cytosolic PfYRS (PF3D7_0807900) was generated by integrating the
676 gene regulatable system, TetR-DOZI-RNA aptamer module at the 3'-end of the target gene, in P. falciparum
677 parasites using CRISPR-Cas9 and homology-driven repair (55, 56). A line harbourbing an aptamer-
678 regulatable fluorescent protein (eYFP) integrated in the cg6 locus is used as the control (55). Transfection
679 into parasites was carried out by preloading RBCs with the donor vector as described previously (57).
680 Briefly, 50 μg of purified plasmid DNA was mixed with human RBCs and subjected to 8 square wave
681 electroporation pulses of 365 V for 1 ms each, separated by 0.1 s in a 0.2 cm cuvette. The plasmid DNA
682 preloaded cells were inoculated with NF54 expressing Cas9 and T7 RNA polymerase. […]
696 Stock solutions of ML901, DHA or borrelidin (Cayman Chemicals) were dispensed into 96-well U-bottom
697 BD Falcon™ plates and serially diluted in complete medium to yield final concentrations ranging from 20-
698 0.08 nM. Synchronous ring-stage YRScyt conditional knockdown line and the aptamer-regulatable control
699 line in varying aTc concentrations (high = 50 or 500 nM, low = 1 nM, and no aTc) were distributed into
700 the drug plate. Lowest drug treatment and a lethal dose of chloroquine (200 nM) served as reference
701 controls. Growth inhibition was analysed after 72 h using the Renilla-Glo(R) Luciferase Assay System (ref
702 no E2750 Promega) and the GloMax® Discover Multimode Microplate Reader (Promega), and IC50 values
703 were obtained from corrected dose-response curves using GraphPad Prism (version 8; GraphPad Software). […]
706 CRISPR/Cas9 was used to generate parasites encoding the S234C mutation in exon 2 of PfYRS, as shown
707 in Suppl Figure 6. Two guide RNAs (gRNA1: […] and gRNA2:
708 […]) were selected using Benchling (benchling.com), and cloned into the
709 pDC2-coCas9-gRNA plasmid essentially as described previously (58). A donor template of 645 bp,
710 encompassing the majority of the 708 bp exon 2, was synthesized (ThermoFisher) and cloned into the
711 AatII/EcoRI sites of both the pDC2-coCas9-gRNA1 and pDC2-coCas9-gRNA2 plasmids. In addition to
712 the TCC>TGC (S234C) mutation, additional silent shield mutations were introduced to prevent gRNA-
713 Cas9 complex binding, as shown in Suppl Figure 6. Ring-stage P. falciparum parasites (Dd2 strain) at 10%
714 parasitemia (150 µL of packed cells) were transfected with 50 µg of plasmid DNA using a BioRad Gene
715 Pulser II (310 V, 950 µF), and selected with 5 nM WR99210 (Jacobus Pharmaceuticals) for 8 days, after
716 which culture was continued without drug pressure until transfectants were obtained. Clones of the
717 PfYRSS234C mutant parasites were isolated by limiting dilution and verified by Sanger sequencing.
719 Protein translation assay
720 P. falciparum Cam 3.II_Rev (25) schizont- (43-48 h p.i.) infected RBCs were pre-incubated with inhibitor
Using a modification of a published procedure (14), the
722 cells were labelled with O-propargyl-puromycin (OPP; 4 µM) for 1 h, washed 3x (PBS +3% serum) and
723 then fixed for 10 minutes (4% formaldehyde/0.02% glutaraldehyde in PBS). The click reaction was
724 performed for 1 h in the presence of CuSO4 (0.1 mM), THPTA (0.5 mM) and sodium ascorbate (5 mM) to
725 bring about azide-alkyne cycloaddition to Alexa Fluor 488 azide (0.1 µM). Flow cytometry was performed
726 using the FITC and Cy™5.5 channels to detect the Alexa Fluor 488 and PI, respectively.
729 Cam 3.II_Rev (25) trophozoite-infected RBCs (25-30 h p.i.) were incubated with inhibitor for 3 h at 10%
730 hematocrit and 5% parasitemia. The RBC pellet was washed 3 x in PBS + cOmplete. Cells were centrifuged
731 at 380 x g for 5 min and the pelleted cells lysed by resuspension in PBS + 0.05% saponin for 5 min on ice.

## Nc1ncnc2c1c(OC(F)F)nn2[C@@H]1O[C@H](COS(N)(=O)=O)[C@@H](O)[C@H]1O [ML901]
As stated in main text, aTc condition not given, read-out: IC50 against the knockdown parasites
  IC50: 0.4 nM
High aTc (50 nM), read-out: IC50 against PfYRS knockdown line
  IC50: 3.9 ± 0.9 nM
Low aTc (1 nm), read-out: IC50 against PfYRS knockdown line
  IC50: 0.5 ± 0.1 nM
No aTc, read-out: IC50 against PfYRS knockdown line
  IC50: 0.3 ± 0.1 nM
High aTc 50 nM
  Fold change in IC50 (high aTc/ no aTc), PfYRS knockdown line: 13
